Measured values taken from the supplement of paper PMC10307832.

How the values were obtained:
Test in all cases: relative viability (nuclei count vs DMSO), 5 days (fraction); higher = more cells survive
[1] = compound: CCn1c(-c2nonc2N)nc2cnc(Oc3cccc(NC(=O)c4ccc(OCCN5CCOCC5)cc4)c3)cc21 + O=C(c1cc(Cc2n[nH]c(=O)c3ccccc23)ccc1F)N1CCN(C(=O)C2CC2)CC1 [Olaparib] (partner 8 µM)
Procedure, shortened: (§1)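 Relative viability equals treated-well nuclei counts divided by vehicle-well nuclei counts. Counts came from 4× images of lung cancer cell lines grown in 1536-well plates for 5 days after pin-tool dosing on the day after seeding. Dosing used one drug alone or a fixed anchor-drug dose plus five library-drug doses (not always all listed) in √10 steps, and values are medians of duplicate plates.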

Mirin + Decitabine = compound: N=C1NC(=O)/C(=C/c2ccc(O)cc2)S1 [Mirin] + Nc1ncn([C@H]2C[C@H](O)[C@@H](CO)O2)c(=O)n1 [Decitabine] (partner 2 µM)
Procedure, shortened: as §1

Mirin + Lapatinib = compound: N=C1NC(=O)/C(=C/c2ccc(O)cc2)S1 [Mirin] + CS(=O)(=O)CCNCc1ccc(-c2ccc3ncnc(Nc4ccc(OCc5cccc(F)c5)c(Cl)c4)c3c2)o1 [Lapatinib] (partner 2 µM)
Procedure, shortened: as §1

[2] = compound: CCn1c(-c2nonc2N)nc2cnc(Oc3cccc(NC(=O)c4ccc(OCCN5CCOCC5)cc4)c3)cc21 + CCNC(=O)c1noc(-c2cc(C(C)C)c(O)cc2O)c1-c1ccc(CN2CCOCC2)cc1 [Luminespib] (partner 0.01 µM)
Procedure, shortened: as §1

Cell Line | relative viability ([1]; first compound 0.04 µM) | relative viability ([1]; first compound 0.1265 µM) | relative viability ([1]; first compound 0.4 µM) | relative viability ([1]; first compound 1.265 µM) | relative viability ([1]; first compound 4 µM) | relative viability (Mirin + Decitabine; first compound 0.25 µM) | relative viability (Mirin + Decitabine; first compound 2.5 µM) | relative viability (Mirin + Decitabine; first compound 7.906 µM) | relative viability (Mirin + Decitabine; first compound 25 µM) | relative viability (Mirin + Lapatinib; first compound 0.25 µM) | relative viability (Mirin + Lapatinib; first compound 2.5 µM) | relative viability (Mirin + Lapatinib; first compound 7.906 µM) | relative viability (Mirin + Lapatinib; first compound 25 µM) | relative viability ([2]; first compound 0.04 µM) | relative viability ([2]; first compound 0.1265 µM) | relative viability ([2]; first compound 0.4 µM) | relative viability ([2]; first compound 1.265 µM) | relative viability ([2]; first compound 4 µM) | relative viability (Mirin + Decitabine; first compound 0.7906 µM) | relative viability (Mirin + Lapatinib; first compound 0.7906 µM)
NCI-H23 | 0.33 | 0.3 | 0.359 | 0.253 | 0.177 | 0.298 | 0.292 | 0.295 | 0.284 | 1.17 | 1.13 | 0.936 | 0.742 | 0.225 | 0.242 | 0.217 | 0.21 | 0.215 | – | –
NCI-H322M | 1.14 | 1.01 | 0.935 | 0.661 | 0.702 | 0.674 | 0.725 | 0.705 | 0.614 | 0.569 | 0.929 | 0.683 | 0.705 | 1.25 | 1.16 | 0.931 | 0.434 | 0.587 | 0.712 | 0.831
NCI-H358 | 0.709 | 0.612 | 0.792 | 0.572 | 0.521 | 0.238 | 0.242 | 0.169 | 0.177 | 0.466 | 0.489 | 0.52 | 0.379 | 0.667 | 0.302 | – | 0.535 | 0.198 | 0.194 | 0.514
NCI-H460 | 0.545 | 0.383 | 0.458 | 0.085 | 0.138 | 0.517 | 0.467 | 0.505 | 0.539 | 1.05 | 1.06 | 0.836 | 0.631 | 0.0313 | 0.0331 | 0.0317 | 0.0272 | 0.0222 | 0.504 | 1.01
NCI-H520 | 0.432 | 0.347 | 0.264 | 0.237 | 0.237 | 0.531 | 0.494 | 0.374 | 0.479 | 0.97 | 0.857 | 0.551 | 0.391 | 0.232 | 0.215 | 0.217 | 0.197 | 0.183 | 0.563 | 0.605
NCI-H596 | 0.622 | 0.666 | 0.739 | 0.739 | 0.585 | 1.03 | 1 | 0.993 | 0.998 | 1.1 | 1.04 | 1.1 | 0.983 | 1.28 | 1.1 | 1.01 | 0.979 | 0.97 | 1.2 | 1.07
NCI-H647 | 0.718 | 0.512 | 0.428 | 0.348 | 0.302 | 0.446 | 0.361 | 0.401 | 0.387 | 1.31 | 1.07 | 1.1 | 0.427 | 0.18 | 0.139 | 0.269 | 0.106 | 0.116 | 0.423 | 1.09
NCI-H650 | 0.374 | 0.377 | 0.279 | 0.259 | 0.236 | 0.32 | 0.306 | 0.294 | 0.354 | 0.943 | 0.902 | – | 1.02 | 0.959 | 0.741 | 0.424 | 0.242 | 0.296 | 0.335 | –
NCI-H661 | 0.693 | 0.757 | 0.749 | 0.579 | 0.489 | 0.587 | 0.539 | 0.501 | 0.525 | 0.407 | 0.539 | 0.442 | 0.392 | 0.995 | 0.934 | 0.936 | 0.739 | 0.642 | 0.569 | 0.567
NCI-H727 | – | 0.801 | 0.657 | 0.487 | 0.59 | 0.603 | 1 | 0.865 | 0.922 | 0.995 | 0.96 | 0.672 | 0.851 | 0.418 | 0.264 | 0.352 | 0.379 | 0.413 | 0.83 | 0.714
NCI-H838 | 0.405 | 0.347 | 0.383 | 0.221 | 0.222 | 0.432 | 0.517 | 0.424 | 0.361 | 1.15 | 1.07 | 0.898 | 0.658 | 0.366 | 0.235 | 0.252 | 0.2 | 0.208 | 0.424 | 0.454
NCI-H1355 | 0.731 | 0.832 | 0.739 | 0.649 | 0.61 | 0.365 | 0.391 | 0.38 | 0.365 | 1.01 | 1.01 | 1.1 | 1.11 | 0.744 | 0.742 | 0.672 | 0.759 | 0.797 | 0.367 | 0.961
NCI-H1395 | 0.384 | 0.41 | 0.401 | 0.374 | 0.352 | 0.721 | 0.814 | 0.741 | 0.66 | 0.947 | 1.08 | 0.934 | 0.853 | 0.674 | 0.849 | 0.538 | 0.384 | 0.449 | – | –
NCI-H1437 | 0.696 | 0.624 | 0.591 | 0.485 | 0.49 | 0.571 | 0.606 | 0.647 | 0.555 | 0.912 | 0.776 | 0.762 | 0.394 | 1.25 | 1.23 | 1.11 | 0.897 | 0.766 | 0.559 | 0.741
NCI-H1650 | 0.74 | 0.849 | 0.744 | 0.696 | 0.715 | 0.479 | 0.403 | 0.31 | 0.364 | 0.774 | 0.891 | 0.708 | 0.465 | 0.248 | 0.198 | 0.196 | 0.191 | 0.183 | 0.385 | 0.501
NCI-H1651 | 0.18 | 0.182 | 0.195 | 0.17 | 0.169 | 0.259 | 0.657 | 0.536 | 0.612 | 0.882 | 0.938 | 0.711 | 0.824 | 0.843 | 1.14 | 0.71 | 0.689 | 0.491 | 0.577 | 0.832
NCI-H1666 | 0.718 | 0.863 | 0.702 | 0.717 | 0.551 | 0.543 | 0.76 | 0.654 | 0.692 | 0.683 | 0.638 | 0.444 | 0.443 | 1.2 | 1.24 | 1.27 | 0.907 | 0.478 | 0.676 | 0.381
